Patent publication US20230095276A1, “ESTERS OF A RETINOID AND A TOCOPHEROL OR TERT-BUTYLHYDROQUINONE AND PREPARATIONS THEREOF” (Conagen Inc., priority 2021, published 2023)

Columns and labels:
Format in all cases: cell-based
[1] = molecular target: T1, RAR alpha (Homo sapiens, UniProt P10276); assay: RAR alpha agonist reporter cell assay (Gal4 DBD receptor hybrid, luciferase); details: for Fold Activation: 23 hours, vs DMSO; for agonist activity towards RAR alpha (in words): summary of Table 1
T1 sequence (P10276 183-417 limits assumed): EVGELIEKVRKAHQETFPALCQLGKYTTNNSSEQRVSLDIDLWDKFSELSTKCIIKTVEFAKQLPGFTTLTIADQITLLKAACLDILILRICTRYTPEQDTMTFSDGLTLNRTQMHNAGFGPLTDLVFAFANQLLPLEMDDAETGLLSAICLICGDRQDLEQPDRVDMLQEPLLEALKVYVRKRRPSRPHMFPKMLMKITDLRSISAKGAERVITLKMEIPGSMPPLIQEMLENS
Procedure: (§1) Reporter Cells (Indigo Biosciences, catalog #IB02201, IB02101, IB00821) were used in the assays. The reporter cells expressed a receptor hybrid in which the native N-terminal DNA binding domain (DBD) had been replaced with that of the yeast Gal4 DBD. The reporter gene, firefly luciferase, is functionally linked to the Gal4 upstream activation sequence (UAS). Receptor assays were performed as follows, Steps 1 to 3.
(§2) Step 1: A suspension of Reporter Cells was prepared in Cell Recovery Medium (CRM: containing charcoal-stripped FBS) and 100 μL of the Reporter Cell suspension was dispensed into each of the wells of a white 96-well assay plate. Step 2: Test and reference compound master stocks were prepared as solutions at 1,000× concentration in DMSO relative to the final treatment concentration. This intermediate stock was subsequently diluted directly into INDIGO Biosciences's Compound Screening Medium (CSM; containing charcoal-stripped FBS) to generate ‘2×-concentration’ treatment media. 100 μL of each prepared treatment medium was dispensed into duplicate assay wells pre-dispensed with a 100 μL suspension of Reporter Cells, thereby achieving the desired final treatment concentrations. The concentration of residual DMSO in all assay wells was 0.1% for the test and reference compounds. Assay plates were incubated at 37° C., 5% CO2 and ˜70% humidity for 23 hours. DMSO control was used to determine background activity. Retinoic acid was used with its EC100 concentration to show 100% activity of each receptor. Retinol served as positive control.
(§3) Step 3: Following the incubation period, treatment media were discarded and 100 μL/well of Luciferase Detection Reagent was added per well to determine receptor activity in terms of relative luminescence units (RLUs). Data processing: Fold activation: [Ave RLU Test Cmpd/Ave RLU DMSO].

[2] = molecular target: T2, RAR beta (Homo sapiens, UniProt P10826); assay: RAR beta agonist reporter cell assay (Gal4 DBD receptor hybrid, luciferase); details: for Fold Activation: 23 hours, vs DMSO; for agonist activity towards RAR beta (in words): summary of Table 1
T2 sequence (P10826 183-417 limits assumed): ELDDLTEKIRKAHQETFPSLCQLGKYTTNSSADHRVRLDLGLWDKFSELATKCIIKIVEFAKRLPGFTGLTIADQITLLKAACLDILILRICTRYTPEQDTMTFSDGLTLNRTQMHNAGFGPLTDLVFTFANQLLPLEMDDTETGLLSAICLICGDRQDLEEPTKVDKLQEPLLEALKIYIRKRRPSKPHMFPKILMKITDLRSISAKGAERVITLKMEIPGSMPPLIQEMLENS
Procedure: as §1, §2, §3

[3] = tested on: RAR gamma; assay: RAR gamma agonist reporter cell assay (Gal4 DBD receptor hybrid, luciferase); details: for Fold Activation: 23 hours, vs DMSO; for agonist activity towards RAR gamma (in words): summary of Table 1
Procedure: Reporter Cells (Indigo Biosciences, catalog #IB02201, IB02101, IB00821) were used in the assays. The reporter cells expressed a receptor hybrid in which the native N-terminal DNA binding domain (DBD) had been replaced with that of the yeast Gal4 DBD. The reporter gene, firefly luciferase, is functionally linked to the Gal4 upstream activation sequence (UAS). Receptor assays were performed as follows, Steps 1 to 3. Step 1: A suspension of Reporter Cells was prepared in Cell Recovery Medium (CRM: containing charcoal-stripped FBS) and 100 μL of the Reporter Cell suspension was dispensed into each of the wells of a white 96-well assay plate. Step 2: Test and reference compound master stocks were prepared as solutions at 1,000× concentration in DMSO relative to the final treatment concentration. […] The concentration of residual DMSO in all assay wells was 0.1% for the test and reference compounds. Assay plates were incubated at 37° C., 5% CO2 and ˜70% humidity for 23 hours. DMSO control was used to determine background activity. […] Retinol served as positive control. Step 3: Following the incubation period, treatment media were discarded and 100 μL/well of Luciferase Detection Reagent was added per well to determine receptor activity in terms of relative luminescence units (RLUs). Data processing: Fold activation: [Ave RLU Test Cmpd/Ave RLU DMSO].

SMILES | Fold Activation ([1]; RAR alpha, 0.01 μM) | Fold Activation ([1]; RAR alpha, 0.1 μM) | Fold Activation ([1]; RAR alpha, 1 μM) | agonist activity towards RAR alpha (in words) [1] | Fold Activation ([2]; RAR beta, 0.01 μM) [fold] | Fold Activation ([2]; RAR beta, 0.1 μM) [fold] | Fold Activation ([2]; RAR beta, 1 μM) [fold] | agonist activity towards RAR beta (in words) [2] | activity compared with retinoic acid ([1]; RAR alpha) | activity compared with retinoic acid ([2]; RAR beta) | Fold Activation ([3]; RAR gamma, 0.01 μM) [fold] | Fold Activation ([3]; RAR gamma, 0.1 μM) | Fold Activation ([3]; RAR gamma, 1 μM) [fold] | agonist activity towards RAR gamma (in words) [3] | activity compared with retinol ([1]; RAR alpha, all tested concentrations) | activity compared with retinol ([2]; RAR beta, all tested concentrations) | activity compared with retinoic acid ([3]; RAR gamma) | activity compared with retinol ([3]; RAR gamma, all tested concentrations)
CC1=C(/C=C/C(C)=C/C=C/C(C)=C/C(=O)Oc2ccc(O)c(C(C)(C)C)c2)C(C)(C)CCC1 [3-tert-Butyl-4-hydroxyphenyl retinoate, 3-tert-butyl-4-hydroxyphenyl retinoate] | 1,573 fold | 2,768 fold | 3,414 fold | exhibited agonist activity | 232 | 287 | 331 | exhibited agonist activity | comparable activity to retinoic acid | comparable activity to retinoic acid | 541 | 1,010 fold | 701 | exhibited agonist activity | higher activity than retinol at all tested concentrations | higher activity than retinol at all tested concentrations | comparable activity to retinoic acid | higher activity than retinol at all tested concentrations
CC1=C(/C=C/C(C)=C/C=C/C(C)=C/C(=O)Oc2cc(C)c3c(c2)CC[C@@](C)(CCC[C@H](C)CCC[C@H](C)CCCC(C)C)O3)C(C)(C)CCC1 [(+)δ-Tocopheroyl retinoate, (+)δ-tocopheroyl retinoate] | 0.620 fold | 5.25 fold | 251 fold | exhibited agonist activity | 1.57 | 3.96 | 53.4 | exhibited agonist activity | – | – | 1.10 | 8.45 fold | 315 | exhibited agonist activity | – | – | – | –
CC1=C(/C=C/C(C)=C/C=C/C(C)=C/C(=O)O)C(C)(C)CCC1 [Retinoic acid, reference compound] | – | – | – | – | – | – | – | – | – | – | – | 706 fold | – | – | – | – | – | –

More lines, main results first:

Fold Activation ([1]; RAR alpha, 0.01 μM) | Fold Activation ([1]; RAR alpha, 0.1 μM) | Fold Activation ([1]; RAR alpha, 1 μM) | agonist activity towards RAR alpha (in words) [1] | Fold Activation ([2]; RAR beta, 0.01 μM) [fold] | Fold Activation ([2]; RAR beta, 0.1 μM) [fold] | Fold Activation ([2]; RAR beta, 1 μM) [fold] | agonist activity towards RAR beta (in words) [2] | activity compared with retinoic acid ([1]; RAR alpha) | activity compared with retinoic acid ([2]; RAR beta) | SMILES | Fold Activation ([3]; RAR gamma, 0.01 μM) [fold] | Fold Activation ([3]; RAR gamma, 0.1 μM) | Fold Activation ([3]; RAR gamma, 1 μM) [fold] | agonist activity towards RAR gamma (in words) [3] | activity compared with retinol ([1]; RAR alpha, all tested concentrations) | activity compared with retinol ([2]; RAR beta, all tested concentrations) | activity compared with retinoic acid ([3]; RAR gamma) | activity compared with retinol ([3]; RAR gamma, all tested concentrations)
1.27 fold | 9.14 fold | 552 fold | exhibited agonist activity | 0.882 | 6.33 | 149 | exhibited agonist activity | – | – | CC1=C(/C=C/C(C)=C/C=C/C(C)=C/C(=O)Oc2c(C)c(C)c3c(c2C)CCC(C)(CCCC(C)CCCC(C)CCCC(C)C)O3)C(C)(C)CCC1 (racemic) [(±)α-tocopheryl retinoate] | 1.79 | 23.8 fold | 365 | exhibited agonist activity | – | – | – | –
1.77 fold | 6.35 fold | 518 fold | – | 1.63 | 4.91 | 127 | – | – | – | CC1=C(/C=C/C(C)=C/C=C/C(C)=C/CO)C(C)(C)CCC1 [Retinol, reference compound] | 2.28 | 18.5 fold | 368 | – | – | – | – | –
